Test results taken from PubChem BioAssay (NCI).
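1) Cells in 96-well plates. 2) Compound, 48 h, 5 concentrations. 3) Linear interpolation between surrounding doses. 4) Unreached endpoint = highest concentration. TGI: concentration producing complete growth inhibition.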

How the values were obtained:
Assay in all cases: DTP human tumour cell line panel, 48 h
A549 NSCLC = system: A549 NSCLC
HCT-116 colon = system: HCT-116 colon
HOP-62 NSCLC = system: HOP-62 NSCLC
SR leukemia = system: SR leukemia

Row | Compound | TGI (A549 NSCLC) | TGI (HCT-116 colon) | TGI (HOP-62 NSCLC) | TGI (SR leukemia)
1 | O=C(c1ccccc1)c1ccc2c(c1)nc1n2C(c2c(F)cccc2F)SC1 (stereo not given) | > 100 µM | 42.2 µM | > 100 µM | –
2 | Cc1nc(C)c(N2CCN(C(=O)O)CC2)c(=O)[nH]1 | > 100 µM | > 100 µM | > 100 µM | > 100 µM
3 | OC(Cc1ccc2ccccc2n1)(C(F)(F)Cl)C(F)(F)Cl | > 10 µM | > 10 µM | > 10 µM | > 10 µM
4 | NC(=O)C(=CNC(=S)Nc1ccc(S(=O)(=O)Nc2ccccn2)cc1)C(N)=O | > 100 µM | > 100 µM | > 100 µM | > 100 µM
5 | CCOC(=O)CCC(NC(=O)C(N)c1ccc([N+](=O)[O-])cc1)C(=O)NC(CCC(=O)OCC)C(=O)OCC (stereo not given) | > 100 µM | > 100 µM | > 100 µM | > 100 µM
6 | COC(=O)n1c(C)c(C=O)c2ccc(OC)cc21 | > 100 µM | > 100 µM | 60.8 µM | > 100 µM
7 | CCN(CC)c1ccc2cc(C(=O)NCc3ccccc3)c(=N)oc2c1 | > 100 µM | > 100 µM | > 100 µM | > 100 µM
8 | CCCCCCNC(=S)N/N=C(\C)c1ccccn1 | 14.6 µM | 15.9 µM | 14.9 µM | –
9 | C[C@@H]1CCC2C(C)(C)C(/C=C\C=O)C3(C)OC213 (stereo not given in full) | > 100 µM | 98.2 µM | > 100 µM | –
10 | COc1cc(C(C[N+](=O)[O-])SC(C)=O)ccc1OCc1ccccc1 (stereo not given) | 25.4 µM | 8.26 µM | 14.3 µM | 4.86 µM
11 | CCN(CC)c1ccc(C2Nc3ccc4ccccc4c3C3=C2C(=O)CCC3)cc1 (stereo not given) | > 100 µM | > 100 µM | 69.5 µM | –
12 | CSc1nn(C)cc2nc(C)nc1-2 | > 100 µM | > 100 µM | > 100 µM | > 100 µM
13 | [N-]=[N+]=Nc1ccc2c(c1)Sc1ccccc1N2CCCCN1CCN(Cc2ccc(C(=O)c3ccc(CSCC(N)C(=O)O)cc3)cc2)CC1 (stereo not given) | – | 29.5 µM | 57.3 µM | –
14 | N/C(=N\N=C\c1cc(I)cc(I)c1O)NO | > 100 µM | 76.2 µM | > 100 µM | –
15 | NS(=O)(=O)c1nnc(NC(=O)c2cccc([N+](=O)[O-])c2)s1 | > 100 µM | > 100 µM | > 100 µM | > 100 µM
16 | CCOC(=O)[C@@H]1ON2O[C@H](OC3CCCCC3c3ccccc3)C[C@H]3OC(=O)[C@@H]1C32 (stereo not given in full) | > 100 µM | > 100 µM | > 100 µM | > 100 µM
17 | Cc1cccc(/C=N\NC(=S)N2CCCCC2)n1 | > 100 µM | 0.125 µM | 0.525 µM | 0.123 µM

Row | Compound | TGI (A549 NSCLC) | TGI (HCT-116 colon) | TGI (HOP-62 NSCLC) | TGI (SR leukemia)
18 | COc1cc(C2c3cc4c(cc3OC(NCCc3ccccc3)C2C)OCO4)cc(OC)c1OC (stereo not given) | > 90.4 µM | 18.6 µM | > 70.3 µM | –
19 | c1ccc(-c2c3c(nc4c2CC[C@H]4NC2=NCCN2)[C@@H](NC2=NCCN2)CC3)cc1 | > 100 µM | > 100 µM | > 100 µM | > 100 µM
20 | CN1N=C(c2ccccc2)C(C(c2ccccc2[N+](=O)[O-])C2C(=O)N(C)N=C2c2ccccc2)C1=O (stereo not given) | > 100 µM | > 100 µM | > 100 µM | –
21 | Cc1cc(S(=O)(=O)NC2=NCCN2Cc2ccccc2)c(S)cc1Cl | > 100 µM | > 100 µM | > 100 µM | –
22 | CCOC(=O)c1nc2ccc(C(F)(F)F)cc2nc1Nc1ccc(F)cc1 | 82.9 µM | > 100 µM | > 100 µM | –
23 | CCO/C(O)=C(/C(=N)N1CCCC1)C(=O)Nc1cccc(Cl)c1 | > 100 µM | > 100 µM | > 100 µM | –
24 | CN(C)/C=N\c1nncc2[nH]cnc12 | > 100 µM | > 100 µM | > 100 µM | –
25 | O=C1NC(=S)NC(=O)C1=Cc1ccc(-c2ccccc2)cc1 | > 100 µM | > 100 µM | > 100 µM | –
26 | O=C(O)C1CCCCN1C(=O)Cc1c[nH]c2ccccc12 (stereo not given) | > 100 µM | > 100 µM | > 100 µM | –
27 | CC(C)CC(NP(=O)(O)OC1OC(C)C(O)C(O)C1O)C(=O)NC(Cc1c[nH]c2ccccc12)C(=O)O (stereo not given) | > 100 µM | > 100 µM | > 100 µM | –
28 | Nc1ncnc2c1ncn2-c1ccc([N+](=O)[O-])cn1 | > 100 µM | > 100 µM | > 100 µM | –
29 | CCc1[nH]c(=O)c2oc3cc4ccccc4cc3c2c1C(=O)O | > 10 µM | > 10 µM | – | > 10 µM
30 | CCCCCCSCC/C(C)=N\OC | > 100 µM | > 100 µM | > 100 µM | –
31 | CCCC(C)NC(=O)c1ccc(N(C)Cc2cnc3nc(N)nc(N)c3n2)cc1 (stereo not given) | – | > 100 µM | 89.4 µM | > 100 µM
32 | COc1cc(C2SCC(=O)N2c2ccc(NC(C)=O)cc2)cc(OC)c1OC (stereo not given) | > 100 µM | > 100 µM | – | > 100 µM
33 | CCOC(=O)c1nc2ccccc2nc1Oc1ccc(C#N)cc1 | > 100 µM | > 100 µM | > 100 µM | –
